Laboratory results reported in patent US20090055945A1, “Method for Producing Nuclear-Transplanted Egg” (priority 2005, published 2009).

Legend:
[1] = tested on: nuclear transfer oocytes (nuclei from cumulus cells in enucleated oocytes); test: Expanded blastocyst formation of nuclear transfer oocytes (cumulus cell nuclei); assay type: cell-based, mouse; conditions: 5 μM apicidin
Description: Production of cloned mice including production of nuclear transfer embryos was carried out according to the method as described in Non-patent Document 5. Briefly, pregnant mare serum gonadotrophin (PMSG) was first administered to 8-weeks-old female B6D2F1 (C57BL/6 XDBA/2) mice (Japan SLC) for superovulation treatment. Human choriogonadotropin (hCG) was administered after 48 hours. Oocytes were collected after 16 hours. Nuclei were removed from the collected unfertilized oocytes in the presence of 5 μg/ml of cytochalasin B using a micromanipulator (enucleation).
Next, cell membranes of cumulus cells from a B6D2F1 mouse as donor somatic cells suspended in a 1.2% polyvinylpyrrolidone (PVP) solution were destroyed using an injection pipette, and the nuclei were injected into the enucleated oocytes using a micromanipulator (nuclear transfer). A piezo drive apparatus (Prime Tech) was used to generate piezo-pulses for penetration of zona pellucida or cell membranes which is required for injection of nuclei.
The thus obtained nuclear transfer oocytes were cultured in a CO2 incubator at 37° C. for 30 minutes to 1 hour. The oocytes were then transferred to an oocyte activation solution (Ca^2+-free CZB medium supplemented with 5 mM strontium chloride (SrCl2) and 5 μg/ml of cytochalasin B (Non-patent Document 10)) containing 0.5, 5, 50 or 500 nM trichostatin A (hereinafter referred to as TSA) to artificially activate the oocytes and initiate the development. Activation of oocytes was confirmed 6 hours after the initiation of activation using pronuclei formation as an index. Activated nuclear transfer oocytes were transferred to KSOM medium (Specialty Media) containing TSA at the same concentration, and cultured for further 14 hours (for 20 hours after the initiation of activation) in the medium. For a control, dimethyl sulfoxide (DMSO), which was used for dissolving TSA, was used in place of TSA to produce the same concentration.
Then, the nuclear transfer embryos at the 2-cell stage were cultured in KSOM medium without TSA until 96 hours after the initiation of activation, and development into expanded blastocysts was observed. The development into expanded blastocyst was confirmed by culturing for 96 hours after the initiation of activation and then observing under a microscope one in which the volume of embryo was increased to result in expansion of the blastocyst and thinning of zona pellucida among blastocysts having blastocoels. 80 or more embryos were examined in each of the experimental groups of the respective concentrations.
The ratio of the developed blastocysts to the number of nuclear transfer oocytes used (blastocyst formation rate (%)) was determined. The ratio of the developed expanded blastocysts to the number of oocytes that initiated cleavage (i.e., developed into the 2-cell stage) among the reconstructed nuclear transfer oocytes (blastocyst formation rate (%)) was determined.
Nuclear transfer oocytes were produced by injecting nuclei from cumulus cells into enucleated oocytes according to the method as described in Example 1, cultured in KSOM medium containing TSA at a concentration of 5 nM for various periods of time (for 0, 24, 48 or 72 hour(s) from the initiation of activation), and then cultured in KSOM medium without TSA until 96 hours after the initiation of activation. Then, development into expanded blastocysts was observed and the blastocyst formation rate was determined. […]

[2] = tested on: immortalized bovine mammary epithelial cells (MECL) or bovine fetal fibroblasts (BFF); conditions: MECL or BFF treated before nuclear transfer; Non-patent Document 2; cited from earlier work
[3] = tested on: oocytes injected with mature sperm (ICSI); test: Paternal genome DNA methylation, mature sperm injection (ICSI); assay type: cell-based, mouse; conditions: 10 μM 5-azacytidine, 20 hours
Description: The oocytes injected with the nuclear domains of round spermatids obtained by ROSI were cultured for 20 hours in the presence of 20 ng/ml of demecolcine in a medium containing 10 μM 5-azacytidine (5-aza) or 500 nM TSA as an anti-methylation agent. Similarly, injection of mature sperms was carried out (ICSI (intracytoplasmic sperm injection)). Specifically, heads of sperms were separated from the tails by applying pulses to the head-tail junctions by means of a piezo-driven pipette (PrimeTech), and injected into oocytes. The oocytes were not subjected to activation in this case. […]
For quantitative analysis of pronuclear DNA methylation levels, fluorescence images were subjected to densitometric analysis using the program Image-J from the National Institute of Health (http://rsb.info.nih.gov/ij/). For each pronucleus, the relative intensity of methylation of the paternal genome was calculated as a percentage of the fluorescence intensity of the maternal genome. In Table 3, data with (b) and without (a) anti-methylation agent were statistically analyzed by Scheffe tests for multiple mean comparisons using the statistical program SPSS version 12.0 (SPSS Inc.). […]

[4] = tested on: oocytes injected with nuclear domains of round spermatids (ROSI); test: Paternal genome DNA methylation, spermatid injection (ROSI); assay type: cell-based, mouse; conditions: Spermatid (ROSI); 10 μM 5-azacytidine, 20 hours
Description: The oocytes injected with the nuclear domains of round spermatids obtained by ROSI were cultured for 20 hours in the presence of 20 ng/ml of demecolcine in a medium containing 10 μM 5-azacytidine (5-aza) or 500 nM TSA as an anti-methylation agent. Similarly, injection of mature sperms was carried out (ICSI (intracytoplasmic sperm injection)). Specifically, heads of sperms were separated from the tails by applying pulses to the head-tail junctions by means of a piezo-driven pipette (PrimeTech), and injected into oocytes. The oocytes were not subjected to activation in this case.
The cultured oocytes injected with nuclei were fixed in PBS containing 4% paraformaldehyde at 4° C. overnight, washed in PBS containing 0.1% polyvinyl alcohol (PVA), and blocked in PBS containing 3% bovine serum albumin (BSA) and 0.2% Triton X-100 at 4° C. overnight. Subsequent steps were carried out at room temperature. The fixed oocytes injected with nuclei were permeabilized by treating with 0.2% Triton X-100 in PBS at room temperature. The oocytes were then treated with 2N HCl at room temperature for 50 minutes, neutralized in 100 mM Tris-HCl buffer (pH 8.0) (Non-patent Document 15), and extensively washed with PBS containing 1% BSA.
Next, incubation. with an anti-5-methylcytidine antibody (Eurogentec) in PBS containing 0.1% PVA was carried out for 2 to 3 hours. After extensively being washed, oocytes were stained with Alexa Flour-488 secondary antibody (Molecular Probes), stained with 5 μg/ml 4′,6′-diamidino-2-phenylindole (DAPI) for 30 minutes, and mounted using Vectashield (Vector Laboratory). The specimens were observed using Olympus BX51 microscope (Olympus). All images were captured with DP70 Olympus digital camera using Olympus Analysis software to apply colors to DAPI-stained DNA and merged images.
For quantitative analysis of pronuclear DNA methylation levels, fluorescence images were subjected to densitometric analysis using the program Image-J from the National Institute of Health (http://rsb.info.nih.gov/ij/). For each pronucleus, the relative intensity of methylation of the paternal genome was calculated as a percentage of the fluorescence intensity of the maternal genome. In Table 3, data with (b) and without (a) anti-methylation agent were statistically analyzed by Scheffe tests for multiple mean comparisons using the statistical program SPSS version 12.0 (SPSS Inc.). All percentile data were subjected to arcsine transformation prior to the statistical analysis.

Question: Which “increase in blastocyst formation rate vs control” value [1] does the source give for `CCC(=O)CCCCC[C@@H]1NC(=O)[C@H]2CCCCN2C(=O)[C@H]([C@@H](C)CC)NC(=O)[C@H](Cc2cn(OC)c3ccccc23)NC1=O` [apicidin] here?
Answer: Its value is “about 2 fold”.

Question: What about the blastocyst formation rate ([1]; method of Example 1) of the same molecule?
Answer: Its blastocyst formation rate is 69.0%.

Question: For `CCCC(=O)[O-].[Na+]` [sodium butyrate], which blastocyst development rate [2] is on record?
Answer: Its blastocyst development rate is “increased”.

Question: Which results are given for `Nc1ncn([C@@H]2O[C@H](CO)[C@@H](O)[C@H]2O)c(=O)n1` [5-aza, 5-azacytidine]?
Answer: Ratio of methylation level of paternal genome to maternal genome (%) [3]: 17.5^b %; Ratio of methylation level of paternal genome to maternal genome (%) [4]: 54.9^b %
